From US8163479B2, “Specific substrates for O6-alkylguanine-DNA alkyltransferase” (Ecole Polytechnique Federale de Lausanne, priority 2004, dated 2012)
Substitutions are numbered along the chain they refer to. Residues, ends and D or L forms follow the SMILES beside them. *: point of attachment. X1 = CN(CCCC(=O)NCc1ccc(COc2nc(N)nc3[nH]c(CCCNC(=O)CN4C(=O)C[C@H](*)C4=O)nc23)cc1)C(=O)c1ccccc1-c1c2ccc(=N)c(S(=O)(=O)O)c-2oc2c(S(=O)(=O)O)c(N)ccc12

How the values were obtained:
[1] = target: T1, AGT26-CaaX fusion protein in CHO cells deficient in endogenous wildtype AGT (Homo sapiens, UniProt P16455, A127T/C150S/C62A/G131K/G132T/K125A/M134L/N157G/R128A/R135S/S159E); format: cell-based
T1 construct: and truncation at 182 is also prepared according to the same method; expressed in transfected cells
T1 sequence (P16455 1-182 C62A/K125A/A127T/R128A/G131K/G132T/M134L/R135S/C150S/N157G/S159E): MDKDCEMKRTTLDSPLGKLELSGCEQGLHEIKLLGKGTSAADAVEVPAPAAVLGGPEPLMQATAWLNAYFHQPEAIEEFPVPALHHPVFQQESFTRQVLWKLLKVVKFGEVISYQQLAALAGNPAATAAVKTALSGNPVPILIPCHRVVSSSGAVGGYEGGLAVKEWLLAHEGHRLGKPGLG
Protocol: A fourth AGT mutant (“AGT26”) related to AGTM and containing the mutations Cys62Ala, Lys125Ala, Ala127Thr, Arg128Ala, Gly131Lys, Gly132Thr, Met134Leu, Arg135Ser, Cys150Ser, Asn157Gly, Ser159G1u, and truncation at 182 is also prepared according to the same method.
A vector for a fusion of AGT26 and the CaaX-farnesylation signal is transfected into CHO cells deficient in endogenous wildtype AGT. Stable transfectants are selected under geneticine treatment. For that purpose the gene of AGT26 is cloned into pCMV-Script (Stratagene) followed on its C-terminus by the CaaX-box sequence encoded in the pECP-F (Clontech). The final protein sequence (position 690-1271) yields a single polypeptide with 194 amino acids. […] All imaging is done with an inverted Zeiss fluorescence microscope Axiovert 40 CFL with filter sets for tetramethylrhodamine and for fluorescein.

AGT21 (AGT mutant) = target: T2, AGT21 (AGT mutant) (Homo sapiens, UniProt P16455, A127T/C150N/C62A/K125A/N157G/Q115S/Q116H/R128A/R135S/S151I/S152N/S159E); experiment: Fluorescence-appearance assay and reactivity comparisons; format: biochemical; settings: for reaction rate relative to the compound unsubstituted at C^8/N^9 / reaction rate relative to the corresponding N^9-substituted compound: AGT21; for reaction rate relative to the compound unsubstituted at C^8/N^9: comparator BG-TMR, BG-Atto488 or BG-FL; for reaction rate relative to the corresponding N^9-substituted compound: comparator compound 35, 27 or 29
T2 construct: and truncation at 182 is prepared according to the same method; GST (N); made in house; host or cells: E. coli BL21
T2 sequence (P16455 1-182 C62A/Q115S/Q116H/K125A/A127T/R128A/R135S/C150N/S151I/S152N/N157G/S159E): T1 sequence (P16455 1-182 C62A/K125A/A127T/R128A/G131K/G132T/M134L/R135S/C150S/N157G/S159E) with Q115S, Q116H, K131G, T132G, L134M, S150N, S151I, S152N
Protocol: A third AGT mutant (“AGT21”) related to AGTM and containing the mutations Cys62Ala, Gln115Ser, Gln116His, Lys125Ala, Ala127Thr, Arg128Ala, Arg135Ser, Cys150Asn, Ser15111e, Ser152Asn, Asn157Gly, Ser159G1u, and truncation at 182 is prepared according to the same method.
(§1) In a further assay, purified protein of AGT mutants AGTM and AGT21 (Example 47) at a protein concentration of 10 μM are incubated with 100 nM N-[4-(2-Amino-9-(3-QSY9-aminopropyl)-purin-6-yloxymethyl)-benzyl]-tetramethylrhodamine-5(6)-carboxamide (35, N^9-QSY9-BG-TMR, Example 19) in a buffer containing 100 mM NaCl, 50 mM Tris, pH 8.0, 0.1% Tween, 1 mM DTT, at room temperature. The fluorescence intensity (531 nm excitation/595 nm emission) is followed using a Victor2 microplate reader (Perkin Elmer).
(§2) Further reactivity comparisons gave the following results: […]

AGTM (AGT mutant) = target: T3, AGTM (AGT mutant) (Homo sapiens, UniProt P16455, A127T/C150N/C62A/G131K/G132T/K125A/M134L/N157G/Q115S/Q116H/R128A/R135S/S151I/S152N/S159E); experiment: as above; format: biochemical; settings: for reaction rate relative to the compound unsubstituted at C^8/N^9 / reaction rate relative to the corresponding N^9-substituted compound: AGTM; for reaction rate relative to the compound unsubstituted at C^8/N^9: comparator BG-TMR, BG-Atto488 or BG-FL; for reaction rate relative to the corresponding N^9-substituted compound: comparator compound 35, 27 or 29
T3 construct: a truncation after codon 182 into the mutant AGT gene; GST (N); made in house; host or cells: E. coli BL21
T3 sequence (P16455 1-182 C62A/Q115S/Q116H/K125A/A127T/R128A/G131K/G132T/M134L/R135S/C150N/S151I/S152N/N157G/S159E): T1 sequence (P16455 1-182 C62A/K125A/A127T/R128A/G131K/G132T/M134L/R135S/C150S/N157G/S159E) with Q115S, Q116H, S150N, S151I, S152N
From the text: A second AGT mutant (“AGTM”) containing the mutations Cys62Ala, Gln115Ser, Gln116His, Lys125Ala, Ala127Thr, Arg128Ala, Gly131Lys, Gly132Thr, Met134Leu, Arg135Ser, Cys150Asn, Ser15111e, Ser152Asn, Asn157Gly, Ser159G1u, and truncation at 182 is derived from the mentioned above AGT mutant by subsequent introduction of further mutations and a truncation after codon 182 into the mutant AGT gene. Subsequent PCR amplifications gives rise to the further mutated gene that is subcloned into pGEX2T as described for the first mutant. The GST-fusion protein is expressed and purified as well.
as §1, with “The fluorescence intensity (531 nm excitation/595 nm emission) is followed using a Victor2 microplate reader (Perkin Elmer).” left out
as §2

wild type hAGT = target: T4, wild type hAGT (Homo sapiens, UniProt P16455); settings: known values; cited from earlier work
T4 sequence (P16455 1-207): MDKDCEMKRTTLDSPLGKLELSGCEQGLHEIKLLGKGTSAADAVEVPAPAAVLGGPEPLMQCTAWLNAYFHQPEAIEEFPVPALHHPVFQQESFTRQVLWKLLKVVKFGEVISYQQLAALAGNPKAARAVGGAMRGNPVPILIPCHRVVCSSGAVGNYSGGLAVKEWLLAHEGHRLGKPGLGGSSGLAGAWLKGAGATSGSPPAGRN

[2] = fluorescence 490 nm excitation / 535 nm emission
[3] = 10 μM protein, 100 nM substrate, over 1 hour at 25° C.

For “O^6-tetramethylrhodamine-benzylguanine [BG-TMR, reference compound]”, the “labeling of cells (fluorescence microscopy)” value ([1]; 5 μM, 30 min, CHO cells with AGT26-CaaX) was “clear signal at the cell membrane”.
For CN(CCCC(=O)NCc1ccc(COc2nc(N)nc3[nH]c(CCCNC(=O)c4ccc(/N=N/c5ccc(N(C)C)cc5)cc4)nc23)cc1)C(=O)c1ccccc1-c1c2ccc(=N)c(S(=O)(=O)O)c-2oc2c(S(=O)(=O)O)c(N)ccc12 [compound 45, N-[4-(2-Amino-8-(3-(4-[4-dimethylamino-phenyl]-azo-benzoyl)-aminopropyl)-9H-purin-6-yloxymethyl)-benzyl]-ATTO488-amide], the “reaction rate relative to the compound unsubstituted at C^8/N^9” value (AGT21 (AGT mutant)) was “two times faster”, the “reaction rate relative to the corresponding N^9-substituted compound” value (AGT21 (AGT mutant)) was “at least four times faster” and the “increase in reactivity compared to BG-Atto488” value (AGT21 (AGT mutant); [2]) was “twofold”. For the same molecule, the “reaction rate relative to the compound unsubstituted at C^8/N^9” value (AGTM (AGT mutant)) was “three times faster”, the “reaction rate relative to the corresponding N^9-substituted compound” value (AGTM (AGT mutant)) was “at least fifteen times faster” and the “increased reactivity compared to BG-Atto488” value (AGTM (AGT mutant); [2]) was 3 fold.
For “N-[4-(2-Amino-8-(3-QSY9-aminopropyl)-9H-purin-6-yloxymethyl)-benzyl]-tetramethylrhodamine-5(6)-carboxamide [compound 48]”, the “reaction rate relative to the compound unsubstituted at C^8/N^9” value (AGT21 (AGT mutant)) was “two times faster”, the “reaction rate relative to the corresponding N^9-substituted compound” value (AGT21 (AGT mutant)) was “at least four times faster” and the “reaction rate relative to the compound unsubstituted at C^8/N^9” value (AGTM (AGT mutant)) was “two times faster”. For the same molecule, the “reaction rate relative to the corresponding N^9-substituted compound” value (AGTM (AGT mutant)) was “at least ten times faster”.
For “N-[4-(2-Amino-9-(3-QSY9-aminopropyl)-purin-6-yloxymethyl)-benzyl]-tetramethylrhodamine-5(6)-carboxamide [compound 35]”, the “increase of tetramethylrhodamine fluorescence” value (AGT21 (AGT mutant); [3]) was “about 80%” and the “increase of tetramethylrhodamine fluorescence” value (AGTM (AGT mutant); [3]) was “less than five percent”.
With CN(CCCC(=O)NCc1ccc(COc2nc(N)nc3[nH]c(CCCNC(=O)CN4C(=O)C[C@H](SC[C@H](NC(=O)[C@H](CCCNC(=N)N)NC(=O)[C@H](CCCNC(=N)N)NC(=O)[C@H](CCCNC(=N)N)NC(=O)[C@H](CCCNC(=N)N)NC(=O)[C@H](CCCNC(=N)N)NC(=O)[C@H](CCCNC(=N)N)NC(=O)[C@H](CCCNC(=N)N)NC(=O)[C@H](CCCNC(=N)N)NC(=O)[C@H](CCCNC(=N)N)NC(=O)[C@@H](N)Cc5ccc(O)cc5)C(=O)O)C4=O)nc23)cc1)C(=O)c1ccccc1-c1c2ccc(=N)c(S(=O)(=O)O)c-2oc2c(S(=O)(=O)O)c(N)ccc12 [compound 60, Conjugate O^6-ATT0488-C^8-TyrArg9Cys] (H-YRRRRRRRRRC(X1)-OH; N-terminus and C-terminus assumed) the cell membrane permeability [1] was “increased permeability”.
In the case of Nc1nc(OCc2ccccc2)c2ncn(C3C[C@H](O)[C@@H](CO)O3)c2n1 (stereo partly shown) [N^9-desoxyribosyl-O^6-benzylguanine], the “rate constant of the reaction with wild type hAGT” value (wild type hAGT) is listed as 340 s^−1M^−1.
In the case of “N-[4-(2-Amino-8-(3-(4-[4-dimethylamino-phenyl]-azo-benzoyl)-amino-propyl)-9H-purin-6-yloxymethyl)-benzyl]-fluoresceine-5(6)-carboxamide [compound 44]”, the “reaction rate relative to the compound unsubstituted at C^8/N^9” value (AGT21 (AGT mutant)) is reported as “two times faster”, the “reaction rate relative to the corresponding N^9-substituted compound” value (AGT21 (AGT mutant)) is reported as “at least four times faster” and the “reaction rate relative to the compound unsubstituted at C^8/N^9” value (AGTM (AGT mutant)) is reported as “two times faster”. The “reaction rate relative to the corresponding N^9-substituted compound” value (AGTM (AGT mutant)) was “at least ten times faster”.
